The source of these data is patent US12209087B2, “AKT1 modulators” (Alterome Therapeutics, Inc., priority 2022, dated 2025).

Some results are limits rather than exact numbers.

This test deals with T1, full length AKT E17K (Homo sapiens, UniProt P31749, E17K).
T1 construct: host or cells: HEK-293 (ATCC CRL-1573)
T1 sequence (P31749 whole entry E17K): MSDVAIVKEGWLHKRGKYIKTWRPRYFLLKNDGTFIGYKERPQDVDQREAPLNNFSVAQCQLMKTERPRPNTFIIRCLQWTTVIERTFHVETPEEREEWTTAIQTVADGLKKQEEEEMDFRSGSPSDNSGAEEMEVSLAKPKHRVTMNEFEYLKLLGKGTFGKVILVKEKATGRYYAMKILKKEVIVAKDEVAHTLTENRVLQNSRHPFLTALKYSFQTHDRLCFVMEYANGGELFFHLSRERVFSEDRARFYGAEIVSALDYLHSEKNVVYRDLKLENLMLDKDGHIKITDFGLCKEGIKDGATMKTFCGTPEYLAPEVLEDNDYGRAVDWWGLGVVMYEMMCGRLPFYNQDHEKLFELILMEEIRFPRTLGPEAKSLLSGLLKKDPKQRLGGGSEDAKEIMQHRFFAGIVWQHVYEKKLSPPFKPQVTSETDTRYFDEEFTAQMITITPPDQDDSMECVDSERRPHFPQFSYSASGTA
Put plainly: NanoBRET Target Engagement (TE) Assay. It counts as cell-based. Conditions: competitive tracer displacement in living cells, read-out: AKT1 E17K IC50. An outline of the steps: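 Compound and tracer incubated 2 h before luminescence at donor 450 nm and acceptor 600 nm, with extracellular signal inhibited. EC50 by sigmoidal variable-slope regression.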
On the technique in general: Bioluminescence resonance energy transfer reports proximity on the nanometre scale.
As a reminder, the IC50 is the concentration that inhibits the measured activity by half. Consider `N#Cc1ccc(C(=O)NC2CCN(Cc3ccc(-n4c(-c5cccnc5N)nc5cc(-c6ccccc6)cnc54)cc3)CC2)cn1` [Example 165, N-(1-(4-(2-(2-aminopyridin-3-yl)-6-phenyl-3H-imidazo[4,5-b]pyridin-3-yl)benzyl)piperidin-4-yl)-6-cyanonicotinamide], for which the IC50 lay within 0.6 to 10 µM.

With `N#Cc1ccc(C(=O)N2CCN(Cc3ccc(-n4c(-c5cccnc5N)nc5ccc(-c6ccccc6)nc54)cc3)CC2)cn1` [Example 166, 5-(4-(4-(2-(2-Aminopyridin-3-yl)-5-phenyl-3H-imidazo[4,5-b]pyridin-3-yl)benzyl)piperazine-1-carbonyl)picolinonitrile], the IC50 was in the range of 0.015 to 0.06 µM.

Turning to `N#Cc1ccc(C(=O)NC2CCN(Cc3ccc(-n4c(-c5cccnc5N)nc5ccc(-c6ccccc6)nc54)cc3)CC2)cn1` [Example 167, N-(1-(4-(2-(2-Aminopyridin-3-yl)-5-phenyl-3H-imidazo[4,5-b]pyridin-3-yl)benzyl)piperidin-4-yl)-6-cyanonicotinamide], the IC50 was 0.06 to 0.6 µM. `N#Cc1cccc(C(=O)NCc2ccc(-n3c(-c4cccnc4N)nc4cc(-c5ccccc5)cnc43)cc2)n1` [Example 168, N-(4-(2-(2-Aminopyridin-3-yl)-6-phenyl-3H-imidazo[4,5-b]pyridin-3-yl)benzyl)-6-cyanopicolinamide]: the IC50 was in the range of 0.6 to 10 µM.

For `N#Cc1cc(C(=O)NCc2ccc(-n3c(-c4cccnc4N)nc4cc(-c5ccccc5)cnc43)cc2)ccn1` [Example 169, N-(4-(2-(2-Aminopyridin-3-yl)-6-phenyl-3H-imidazo[4,5-b]pyridin-3-yl)benzyl)-2-cyanoisonicotinamide], the IC50 lay within 0.06 to 0.6 µM. In the case of `N#Cc1cc(C(=O)N2CCN(Cc3ccc(-n4c(-c5cccnc5N)nc5ccc(-c6ccccc6)nc54)cc3)CC2)ccn1` [Example 172, 4-(4-(4-(2-(2-Aminopyridin-3-yl)-5-phenyl-3H-imidazo[4,5-b]pyridin-3-yl)benzyl)piperazine-1-carbonyl)picolinonitrile] it was 0.015 to 0.06 µM; in that of `N#Cc1nc2cc(F)cc(C(=O)NCc3ccc(-n4c(-c5cccnc5N)nc5cccnc54)cc3)c2s1` [Example 173, N-(4-(2-(2-aminopyridin-3-yl)-3H-imidazo[4,5-b]pyridin-3-yl)benzyl)-2-cyano-5-fluorobenzo[d]thiazole-7-carboxamide], below 0.015 µM; in that of `N#Cc1nc2c(C(=O)NCc3ccc(-n4c(-c5cccnc5N)nc5cccnc54)cc3)cc(F)cc2s1` [Example 174, N-(4-(2-(2-aminopyridin-3-yl)-3H-imidazo[4,5-b]pyridin-3-yl)benzyl)-2-cyano-6-fluorobenzo[d]thiazole-4-carboxamide], 0.015 to 0.06 µM. In the case of `N#Cc1nc2cc(F)cc(C(=O)N3CCN(Cc4ccc(-n5c(-c6cccnc6N)nc6cccnc65)cc4)CC3)c2s1` [Example 175, 7-(4-(4-(2-(2-aminopyridin-3-yl)-3H-imidazo[4,5-b]pyridin-3-yl)benzyl)piperazine-1-carbonyl)-5-fluorobenzo[d]thiazole-2-carbonitrile] it was 0.6 to 10 µM; in that of `N#Cc1nc2cc(F)cc(C(=O)N3CCN(Cc4ccc(-n5c(-c6cccnc6N)nc6ccc(-c7ccccc7)nc65)cc4)CC3)c2s1` [Example 180, 7-(4-(4-(2-(2-Aminopyridin-3-yl)-5-phenyl-3H-imidazo[4,5-b]pyridin-3-yl)benzyl)piperazine-1-carbonyl)-5-fluorobenzo[d]thiazole-2-carbonitrile], 0.015 to 0.06 µM.

Consider `N#Cc1nc2c(C(=O)N3CCN(Cc4ccc(-n5c(-c6cccnc6N)nc6ccc(-c7ccccc7)nc65)cc4)CC3)cc(F)cc2s1` [Example 181, 4-(4-(4-(2-(2-Aminopyridin-3-yl)-5-phenyl-3H-imidazo[4,5-b]pyridin-3-yl)benzyl)piperazine-1-carbonyl)-6-fluorobenzo[d]thiazole-2-carbonitrile], for which the IC50 lay within 0.015 to 0.06 µM.
